Assay results: patent US20020164721A1, “Design of a polyepitopic construct for the induction of HLA-A2.1 restricted HIV 1 specific CTL responses using HHD mice” (priority 1999, published 2002)
Values joined by “and” are separate entries in the source; they are usually repeats but may differ in a detail not shown here. Equal entries are not always repeated. “Also recorded” adds a separate entry of the source. Where two headings read alike, the source gives them in different places.

Columns and labels:
[1] = tested on: peptide-pulsed HHD-transfected RMAS cells; assay type: in vivo, HHD mice; conditions: for classification as immunogen: by number of responder mice and strength of responses, peptide in IFA; for Responder/tested mice: 100 μg peptide s.c. in IFA
[2] = tested on: peptide-pulsed HHD-transfected RMAS cells; assay type: in vivo, HHD mice; conditions: with helper peptide; for Responder/tested mice: 50 μg CD8 + 140 μg HBV core T13L in IFA
[3] = tested on: HHD-transfected RMA-S cells loaded with variant peptides; test: Cross-recognition of the main HIV 1 natural variants by induced CTL; assay type: in vivo, HHD mice; conditions: CTL induced by the immunizing peptide; FIG. 4
Description: Therefore, we tested, in the four latter cases, whether the elicited CTL responses by the selected wild-type or tyrosine substituted immunizing peptides could cross-recognize natural variants of a significant representation among HIV 1 isolates.
Cytolytic activity was evaluated against peptide-loaded HHD-transfected RMA-S cells using Inf.m.G9L peptide-loaded cells as a negative control.

HLA-A2.1 molecules [4] = target: T1, HLA-A2.1 molecules (Homo sapiens, UniProt P04439, D140Y/D185E/D98H/E176V/E277Q/G131W/G231S/I119V/I121R/I166T/I218V/L300P/L318F/N151K/N90K/P208A/P217A/Q86G/Q94H/R138H/R169H/T345S); assay type: binding; conditions: wild-type HIV 1 peptides; T2 cells, 37° C., brefeldine A
T1 construct: Using TAP-deficient, HLA-A2.1^+ T2 cells, we evaluated these parameters in an immunofluorescence assay; endogenous in cells; host or cells: T2 cells (TAP-deficient, HLA-A2.1+)

HLA-A2.1 molecules [5] = target: T1, HLA-A2.1 molecules; assay type: binding
[6] = tested on: HHD-transfected RMAS cells loaded with relevant peptide; test: CTL response of HHD mice immunized with lipopeptides; assay type: in vivo; conditions: lipopeptide of the epitope; individual mice 1-6
[7] = tested on: peptide-loaded HHD-transfected RMA-S cells and HHD-transfected HeLa cells expressing the polyepitope; test: Melanoma polyepitopic pCMV-B10 DNA immunization of HHD mice, CTL assay; assay type: in vivo; conditions: pCMV-B10 DNA with 10 melanoma epitopes, FIG. 1C and D
[8] = tested on: HHD-transfected RMA-S target cells loaded with relevant peptide; test: CTL response of HHD mice co-immunized in IFA with tumor peptide and HBVc.128 helper peptide; assay type: in vivo; conditions: for R/T (responder versus tested mice): 50 μg CD8 peptide + 140 μg HBVc.128 helper in IFA; for CTL response with helper peptide (in words): co-injected with HBVc.128 helper, compared with peptide alone
[9] = tested on: HHD-transfected RMAS cells loaded with relevant peptide; test: CTL response of HHD mice immunized with monoepitopic pCMV-B10 DNA; assay type: in vivo; conditions: for lysis in % (highest specific lysis): pCMV-B10 DNA encoding the epitope, individual mice 1-6; for CTL responses (in words): recombinant pCMV-B10-DNA, all animals tested
[10] = tested on: HHD-transfected RMAS cells loaded with relevant peptide; test: CTL response of HHD mice immunized with peptide-loaded dendritic cells; assay type: in vivo; conditions: for lysis in % (highest specific lysis): individual mice 1-6, usually 60/1 E/T; for lysis in % after a second in vitro restimulation: second restimulation with 10% TCGF, individual mice 1-6
[11] = tested on: HHD-transfected RMA-S cells loaded with relevant peptide; test: CTL response of HHD mice injected s.c. with tumor epitopic peptide in IFA (51Cr-release assay); assay type: in vivo; conditions: for hierarchy of CTL inducers: peptide alone in IFA, by number of responding mice and level of specific lysis; for R/T (responder versus tested mice): peptide s.c. in IFA, no helper, responder = at least 10% specific lysis
[12] = tested on: HHD-transfected RMAS cells loaded with relevant peptide; test: CTL response of HHD mice immunized with recombinant Ty-VLP; assay type: in vivo; conditions: for lysis in % (highest specific lysis): recombinant Ty-VLP carrying the epitope, individual mice 1-6; for CTL responses (in words): recombinant Ty-VLP, all animals tested
[13] = tested on: HHD-transfected RMA-S cells loaded with relevant peptide; test: CTL response of A2A2Kb mice injected s.c. with tumor epitopic peptide in IFA (51Cr-release assay); assay type: in vivo; conditions: responder = at least 10% specific lysis
[14] = wild-type HIV 1 peptides, reference I9V, T2 cells

Sequence	classification as immunogen [1]	Responder/tested mice ([1]; without helper peptide)	Responder/tested mice [2]	DC (half-life of stabilized peptide-HLA-A2.1 complexes, DC 50) (HLA-A2.1 molecules [4])	RA (relative affinity) (HLA-A2.1 molecules [5]; [14])	lysis in % (highest specific lysis) [6]	R/T (responder versus tested mice) [8]	lysis in % (highest specific lysis) [9]	lysis in % (highest specific lysis) [10]	lysis in % after a second in vitro restimulation [10]	hierarchy of CTL inducers [11]	R/T (responder versus tested mice) [11]	lysis in % (highest specific lysis) [12]	R/T (responder versus tested mice) [13]	other results
ALVEICTEM [A9M, HIV 1 POL (188-196) CD8 epitopic peptide]	intermediate	3/6	1/6												Maximal specific lysis (%) ([2]; each responder mouse): 31%; cross-recognition of natural HIV 1 variants (in words) [3]: cross-lysed significantly all main natural variants
EMMTACQGV [E9V]	inefficient	0/6	0/6	< 2 h											
KLTPLCVSL [K9L, HIV 1 ENV gp120 (120-128) CD8 epitopic peptide]	intermediate	3/6	4/6	> 6 h	1.35										cross-recognition of natural HIV 1 variants (in words) [3]: lack of cross-recognition
LLDTGADDTV [L10V]	intermediate	1/6	0/6	< 2 h	10										Maximum specific lysis (%) ([1]; without helper peptide, each responder mouse): 48%
VLDVGDAYFSV [V11V]	intermediate	3/6	2/6	2 h	4.5										
VLPDVFIRC [NA17-A.nt38, NA17-A nt38-64 epitopic peptide]						0% (2×) and 12% and 68% and 65% and 47%	5/6	35% and 43% and 47% and 44% and 40% and 54%	0% (2×) and 3% (2×) and 5% and 6%	(6) %; also recorded: (5) %; also recorded: (24) %; also recorded: (9) %; also recorded: (7) %; also recorded: (2) %	intermediate	4/7	55% and 39% and 50% and 60% and 59% and 61%	0/6	CTL response against the epitope after melanoma polyepitope DNA immunization (in words) [7]: Strong responses; CTL response with helper peptide (in words) [8]: stronger responses in a larger proportion of mice; CTL responses (in words) [9]: strong CTL responses; CTL responses (in words) [12]: strong CTL responses; RA (relative affinity) (HLA-A2.1 molecules [5]): 1.52
YLEPGPVTA [gp100.280]						0% (2×) and 8% (2×) and 40% and 21%	2/8	0% (2×) and 8% and 36% and 21% and 9%	0%	(1) %; also recorded: (0) %	weak	3/16	8% (2×) and 3% and 1% and 4% and 18%	0/6	CTL response against the epitope after melanoma polyepitope DNA immunization (in words) [7]: did not elicit CTL responses; also recorded: No specific lysis
YLSGANLNL [CEA.571, CEA 571-579 epitopic peptide]						0% (2×) and 8% (2×) and 34% and 3%	3/6	19% and 66% and 40% and 65% and 62% and 55%	4% (2×) and 1% (2×) and 0% and 2%	(1) %; also recorded: (5) %; also recorded: (2) %; also recorded: (0) %; also recorded: (22) %	strong	6/6	56% and 59% and 51% and 58% and 46% and 62%	0/6	CTL response with helper peptide (in words) [8]: less immunogenic; CTL responses (in words) [9]: strong CTL responses; CTL responses (in words) [12]: strong CTL responses
YMNGTMSOV [Tyrosinase.368-N]						51% and 20% and 0% and 5% and 11% and 12%	5/12	6% and 12% and 16% and 13% and 11% and 38%	0% (4×) and 8% and 15%	(3) %; also recorded: (17) %; also recorded: (30) %; also recorded: (80) %; also recorded: (61) %; also recorded: (1) %	intermediate	4/15	0% and 61% and 58% and 39% and 29% and 17%	0/6	RA (relative affinity) (HLA-A2.1 molecules [5]): 2.2
